Earlier results, collected in patent US20140356424A1, “COMPOSITION FOR TREATMENT OR REDUCTION OF SYMPTOMS RELATED TO PREMENSTRUAL SYNDROME (PMS), PREMENSTRUAL DISPHORIC DISORDER (PMDD), PREMENOPAUSE, MENOPAUSE OR FEMALE HORMONAL DISORDERS, IN A PHARMACEUTICAL COMPOSITION CONTAINING SAID FORM, AND PROCESS FOR PRODUCING SAID PHARMACEUTICAL FORM AND USE …” (EMS S.A., priority 2013, published 2014).

Key:
[1] = tested on: women with a diagnosis of PMS; conditions: calcium carbonate 1.0 g/day, after three months
[2] = tested on: premenstrual symptoms; conditions: daily supplement of 200 mg of magnesium (as MgO)

Compound | complaints of headache, anxiety, agitation and irritability [1] | symptom of fatigue (questionnaire) ([1]; placebo 52.3%) [%] | symptom of changes in appetite (questionnaire) ([1]; placebo 75%) [%] | effect on severity of premenstrual symptoms [2]
O=C([O-])[O-].[Ca+2] [calcium carbonate] | significant changes were not observed | 36 | 52.7 | –
[O]=[Mg] [magnesium (as MgO), magnesium oxide] | – | – | – | reduced mild premenstrual symptoms
